Measured values published in ChEMBL document CHEMBL1201862, “PubChem BioAssay data set” (2004).
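Grown in 96-well plates, cells were treated for 48 hours with each compound at five concentrations. Insufficient inhibition: endpoint recorded as highest concentration tested. GI50 marks 50% less growth.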 The source made the active and inactive calls. Rule as the data show it: active = GI50 up to about 1.1 µM and inactive = higher.

What was measured:
Test in all cases: NCI-60 cell line screen, 48 h
M14 = system: M14
MDA-MB-231 = system: MDA-MB-231
OVCAR-8 = system: OVCAR-8
MOLT-4 = system: MOLT-4
HCT-116 = system: HCT-116
OVCAR-4 = system: OVCAR-4
Malme-3M = system: Malme-3M
UO-31 = system: UO-31
SW-620 = system: SW-620
CCRF-CEM = system: CCRF-CEM
UACC-257 = system: UACC-257
MCF7 = system: MCF7
HOP-62 = system: HOP-62
HCT-15 = system: HCT-15
SF-268 = system: SF-268
786-0 = system: 786-0
PC-3 = system: PC-3
RXF 393 = system: RXF 393
SF-539 = system: SF-539
HOP-92 = system: HOP-92

## CCCCSC1=N/C(=C\c2ccco2)C(=O)N1
M14
  GI50: 53.8 µM (inactive)
MDA-MB-231
  GI50: 99.8 µM (inactive)
OVCAR-8
  GI50: 44.1 µM (inactive)
MOLT-4
  GI50: 36.1 µM (inactive)
HCT-116
  GI50: 56.1 µM (inactive)
OVCAR-4
  GI50: 60.1 µM (inactive)
Malme-3M
  GI50: 29.2 µM (inactive)
UO-31
  GI50: 54 µM (inactive)
SW-620
  GI50: 35.8 µM (inactive)
CCRF-CEM
  GI50: 24.2 µM (inactive)
UACC-257
  GI50: 34.8 µM (inactive)
MCF7
  GI50: 0.687 µM (active)
HOP-62
  GI50: > 100 µM (inactive)
HCT-15
  GI50: 34.6 µM
SF-268
  GI50: 41.3 µM (inactive)
786-0
  GI50: 87.3 µM (inactive)
PC-3
  GI50: 46.1 µM (inactive)
RXF 393
  GI50: 12.1 µM (inactive)

## COC(=O)c1ccccc1/C=C1\Cc2cc3c(cc2C1=O)CCC3
M14
  GI50: 24 µM (inactive)
MDA-MB-231
  GI50: > 100 µM (inactive)
OVCAR-8
  GI50: > 100 µM (inactive)
MOLT-4
  GI50: > 100 µM (inactive)
HCT-116
  GI50: 45 µM (inactive)
OVCAR-4
  GI50: > 100 µM (inactive)
Malme-3M
  GI50: > 100 µM (inactive)
UO-31
  GI50: > 100 µM (inactive)
SW-620
  GI50: > 100 µM (inactive)
UACC-257
  GI50: > 100 µM (inactive)
MCF7
  GI50: 40.6 µM (inactive)
HOP-62
  GI50: 29.6 µM (inactive)
HCT-15
  GI50: 29.8 µM
SF-268
  GI50: 68.5 µM (inactive)
786-0
  GI50: 38.4 µM (inactive)
SF-539
  GI50: > 100 µM (inactive)
PC-3
  GI50: 8.51 µM (inactive)

## CSc1ncc2c(n1)sc1c(=O)n(-c3ccccc3)cnc12
M14
  GI50: > 100 µM (inactive)
MDA-MB-231
  GI50: > 100 µM (inactive)
OVCAR-8
  GI50: > 100 µM (inactive)
MOLT-4
  GI50: > 100 µM (inactive)
HCT-116
  GI50: > 100 µM (inactive)
OVCAR-4
  GI50: > 100 µM (inactive)
Malme-3M
  GI50: > 100 µM (inactive)
UO-31
  GI50: > 100 µM (inactive)
SW-620
  GI50: > 100 µM (inactive)
CCRF-CEM
  GI50: > 100 µM (inactive)
UACC-257
  GI50: > 100 µM (inactive)
HOP-62
  GI50: > 100 µM (inactive)
HCT-15
  GI50: > 100 µM
SF-268
  GI50: > 100 µM (inactive)
786-0
  GI50: > 100 µM (inactive)
HOP-92
  GI50: > 100 µM (inactive)
PC-3
  GI50: > 100 µM (inactive)
RXF 393
  GI50: > 100 µM (inactive)

## C=CC[C@@H](N)C(=O)N(C)[C@@H](C)[C@@H](O)c1ccccc1
M14
  GI50: > 100 µM (inactive)
MDA-MB-231
  GI50: > 100 µM (inactive)
OVCAR-8
  GI50: > 100 µM (inactive)
MOLT-4
  GI50: > 100 µM (inactive)
HCT-116
  GI50: > 100 µM (inactive)
OVCAR-4
  GI50: > 100 µM (inactive)
UO-31
  GI50: > 100 µM (inactive)
SW-620
  GI50: > 100 µM (inactive)
CCRF-CEM
  GI50: > 100 µM (inactive)
UACC-257
  GI50: > 100 µM (inactive)
HOP-62
  GI50: > 100 µM (inactive)
HCT-15
  GI50: > 100 µM
SF-268
  GI50: > 100 µM (inactive)
786-0
  GI50: > 100 µM (inactive)
HOP-92
  GI50: 54.6 µM (inactive)
SF-539
  GI50: > 100 µM (inactive)
PC-3
  GI50: > 100 µM (inactive)

## Nc1ccc(Sc2nnc(N)s2)cc1
M14
  GI50: > 100 µM (inactive)
MDA-MB-231
  GI50: > 100 µM (inactive)
OVCAR-8
  GI50: > 100 µM (inactive)
MOLT-4
  GI50: > 100 µM (inactive)
HCT-116
  GI50: > 100 µM (inactive)
OVCAR-4
  GI50: > 100 µM (inactive)
UO-31
  GI50: > 100 µM (inactive)
SW-620
  GI50: > 100 µM (inactive)
CCRF-CEM
  GI50: > 100 µM (inactive)
UACC-257
  GI50: > 100 µM (inactive)
MCF7
  GI50: > 100 µM (inactive)
HOP-62
  GI50: > 100 µM (inactive)
HCT-15
  GI50: > 100 µM
SF-268
  GI50: > 100 µM (inactive)
786-0
  GI50: > 100 µM (inactive)
SF-539
  GI50: > 100 µM (inactive)
PC-3
  GI50: > 100 µM (inactive)

## Cc1cccc(NC(=O)CCl)c1
M14
  GI50: 8.77 µM (inactive)
MDA-MB-231
  GI50: 5.93 µM (inactive)
OVCAR-8
  GI50: 9.53 µM (inactive)
MOLT-4
  GI50: > 10 µM (inactive)
HCT-116
  GI50: 6.95 µM (inactive)
OVCAR-4
  GI50: 3.29 µM (inactive)
Malme-3M
  GI50: 3.93 µM (inactive)
SW-620
  GI50: > 10 µM (inactive)
CCRF-CEM
  GI50: 2.52 µM (inactive)
UACC-257
  GI50: > 10 µM (inactive)
MCF7
  GI50: > 10 µM (inactive)
HOP-62
  GI50: > 10 µM (inactive)
HCT-15
  GI50: > 10 µM
SF-268
  GI50: 8.69 µM (inactive)
786-0
  GI50: 3.67 µM (inactive)
SF-539
  GI50: 9.31 µM (inactive)
PC-3
  GI50: > 10 µM (inactive)
RXF 393
  GI50: 8.49 µM (inactive)
